# From US7867707B2, “Method for detecting analytes in a sample” (Evotec AG, priority 2004, dated 2011)
# Test system: c-fos mRNA
# Assay: Expression of c-fos mRNA in HepG2 cells, bead-based confocal detection with detection/capture oligonucleotides
# Type: cell-based
# Settings: 100 nM PMA, 24 μl of lysate, using the calibration of example 1a
# Method: Fully automated dual-channel confocal imaging was performed with two independent cooled CCD detectors. Excitation wavelengths were 532 nm and 633 nm, a dichroic beam splitter with 630 nm was used and emission filters were 565/50 nm and 690/40 nm. Laser power was […] for both wavelengths, measured at the entrance of the objective. Exposure times were usually in the range of 500-1000 ms.
# The analysis of the images was performed with image analysis software as follows. Segmentation of the beads from the background was performed on a pixel-basis in the reference image. […] A mask of these rings corresponding to detected beads was generated from the reference image. This mask was applied to the signal image (see FIG. 6, right picture). Areas within the outer boundary of the ring were evaluated for fluorescence intensity stemming from the DO-analyte-CO complex bound to the bead. […] Such local background intensity was then subtracted from the signal intensity.
# The final result was the mean fluorescence intensity/bead pixel of the signal image. In general, the intensity was averaged over all correctly detected beads of the image. As already mentioned, images of sedimented beads were taken. The sedimented beads were usually comprised in wells of micro- or nanotiter plates and in some cases, several images were taken of each well. […]
smiles,measurement,value
"CCCCCCCCCCCCCC(=O)O[C@@H]1[C@@H](C)[C@@]2(O)[C@@H](C=C(CO)C[C@]3(O)C(=O)C(C)=C[C@@H]23)[C@@H]2C(C)(C)[C@]12OC(C)=O [PMA, Phorbol 12-myristate 13-acetate]",c-fos mRNA copy number,3.03*10^6 copies mRNA/well
